Experimental data from paper PMC4515242, “ESR and X-ray Structure Investigations on the Binding and Mechanism of Inhibition of the Native State of Myeloperoxidase with Low Molecular Weight Fragments” (Applied Magnetic Resonance, 2015).

What was measured:
hMPO = target: T1, hMPO (Homo sapiens, UniProt P05164); test: Alpha screen assay: inhibition of MPO-initiated nitration of the Apo-A1 peptide ([…]); format: biochemical; conditions: MPO 11.8 nM, pH 7.4, 45 min RT
T1 construct: purchased Biodesign A31804H
T1 sequence (P05164 49-745): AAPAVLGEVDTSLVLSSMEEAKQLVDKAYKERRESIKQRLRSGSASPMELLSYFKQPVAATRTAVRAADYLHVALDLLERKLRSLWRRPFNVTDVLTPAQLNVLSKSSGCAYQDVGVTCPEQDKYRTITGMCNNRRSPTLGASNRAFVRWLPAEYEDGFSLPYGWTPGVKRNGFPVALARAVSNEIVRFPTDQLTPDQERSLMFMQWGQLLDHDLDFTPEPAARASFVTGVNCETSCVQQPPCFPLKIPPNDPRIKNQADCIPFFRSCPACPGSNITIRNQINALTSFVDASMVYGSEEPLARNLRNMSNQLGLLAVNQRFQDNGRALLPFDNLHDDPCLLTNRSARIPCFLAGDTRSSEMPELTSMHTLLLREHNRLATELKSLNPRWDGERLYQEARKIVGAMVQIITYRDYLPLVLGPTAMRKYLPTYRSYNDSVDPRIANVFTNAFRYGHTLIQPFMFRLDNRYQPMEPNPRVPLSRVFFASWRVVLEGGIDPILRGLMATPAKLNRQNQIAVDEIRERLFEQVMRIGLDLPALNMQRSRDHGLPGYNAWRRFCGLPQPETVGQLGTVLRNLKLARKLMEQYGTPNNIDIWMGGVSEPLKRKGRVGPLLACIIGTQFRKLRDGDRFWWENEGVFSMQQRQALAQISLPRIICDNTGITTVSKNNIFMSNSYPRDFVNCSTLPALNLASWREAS
Method: In a typical experiment, MPO (11.8 nM final concentration) in 20 mM phosphate buffer pH 7.4, 10 % glycerol and 0.005 % gelatin (PB) is added to each well of a multi-well plate containing 20 μl PB ± compound (final concentration of DMSO = 0.9 %). The reaction is started by the addition of 20 μl PB containing 1.5 μM ApoAI peptide substrate, 300 μM diethylenetriaminepentaacetic acid (DTPA), 300 μM sodium nitrite, and 30 μM H2O2. The total reaction volume is 60 μl. The plates are incubated with agitation for 45 min at RT. The reaction is terminated with the addition of 20 μl of a stop solution containing 11.2 nM rabbit anti-nitrotyrosine antibody (final conc. of 2.8 nM), 100 μg/ml streptavidin donor beads, and 100 μg/ml protein A acceptor beads (final concentration of […]), FBS (1.6 % final concentration) in Superblock buffer. The plates are sealed, incubated in the dark for 1 h, and read on a Packard Fusion alpha plate reader.
Through a chloride independent pathway, MPO catalyzes the one electron oxidation of nitrite ions to nitrogen dioxide radicals which then […] protein amino acids like Tyrosine. We used the Apo-A1 peptide substrate ([…]) to follow the nitration of the Tyrosine (indicated by Y in the scheme below): MPO+H2O2→Compound INO2-+Compound I→NO2·+Compound II [drawing 1] Our initial experiments focused on identifying inhibitors that bind to the heme to inhibit the above catalytic action. A representative set of inhibitors is collected in Fig. 1a (strong binders, vide infra) and b (non binders, vide infra).

[1] = target: T2, native state (Fe3+) of hMPO (Homo sapiens, UniProt P05164); test: Low temperature ESR binding assay (binding-induced g shift, Rrelative); conditions: for ESR Rrelative: Rrelative = (Rbound - Rnative)/Rnative x 100, inhibitor:MPO 40:1, pH 6, 6 % DMSO, 4-7 K; for ESR Binding: class by Rrelative, inhibitor:MPO 40:1; for Δg: absolute difference between g X and g Y of the bound complex; for g X / g Y: electronic g value of the bound complex, X-band ESR, 5 K
T2 construct: purchased Athens Research and Technology
T2 sequence (P05164 49-745): T1 sequence (P05164 49-745)
Method: After 5-min. incubation at room temperature, the entire reaction mixture (0.235 mL) was transferred to the ESR quartz tubes. To avoid the quartz tubes breaking during the rapid freezing cycles, the ESR tubes were initially frozen in a 1:1 Isopentane-Cyclohexane mixture cooled with dry ice powder and then transferred to a liquid nitrogen Dewar to be queued up for ESR measurements. The reaction mixture contained a final concentration of 6 % DMSO. ESR spectra were recorded on a Varian E-12, X-band spectrometer equipped with an Air Products liquid helium cryostat.
The experimental g values correspond to the spin Hamiltonian pertinent to the high-spin ion (S = 5/2).1 H=DSZ2-1/3SS+1+E/DSX2-SY2+βgeS.Be where D and E are the eigen values of the axial and rhombic field components, i.e., the symmetry of the ligand (inhibitors approaching heme in this case). […] When the heme lodges inside the protein, the protein side chain amino acid (histidine) approaches the heme vicinity and either binds (axially) directly to the iron in the heme pocket. […] Thus, the fifth ligand leads to lower (rhombic) symmetries causing the signal at g ~ 6 to split. This non-tetragonal splitting of the heme is quantitated by the relationship,2 E/D=Δg/48 where ∆g represents the absolute difference between the gX and gY components. Alternatively, making use of the fact that E/D maximum value = 1/3, one can simplify the above expression as a percentage of rhombicity, R:3 R=Δg/16×100%. […] To rank-order molecules in terms of their ability to distort the heme pocket/plane environment, we used a ratio of total distortion in the bound complex w.r.t. distortion seen in the native unbound enzyme:4 Rrelative=Rbound-Rnative/Rnative×100.
From the relative rhombicities of the bound and unbound complex, a measure of the strength of binding could be derived. […] For the ease of classification, we have empirically defined those with 5 ≤ Rrelative ≥ 2 as weak binding; 15 ≥ Rrelative ≥ 10 as moderate binding; and 25 ≥ Rrelative ≥ 15 as strong binding (Table 2).

Human Myeloperoxidase = target: T3, Human Myeloperoxidase (Homo sapiens, UniProt P05164); test: X-ray co-crystal growth by soaking MPO crystals with inhibitor; conditions: crystals soaked with 50 mM inhibitor
T3 construct: purchased Lee Biosciences 426-10
T3 sequence (P05164 49-745): T1 sequence (P05164 49-745)
Method: Human Myeloperoxidase and co-crystals of MPO were crystallized and analyzed using methods similar to those described by Davey and Fenna. Briefly, hanging drops of 25 mg/mL MPO, 25 mM sodium acetate pH 5.0, 50 mM NaCl, 50 mM ammonium sulfate, 2 mM calcium chloride, and 3-10 % polyethylene glycol 8000 were set up at 21 °C over reservoir solutions containing 300 mM sodium chloride. Crystals of the space group P21 and having two MPO subunits per asymmetric unit grew with the aid of micro-seeding as very thin plates having a brownish orange tinge. Crystals were soaked with inhibitor compounds at a concentration of 50 mM, in a stabilizing buffer containing 18 % polyethylene glycol 8000, 56 mM ammonium sulfate, 2.2 mM calcium acetate, and 56 mM HEPES pH 7.0. Co-crystals were cryo-protected in a stabilizing buffer containing 22.2 % methylpentanediol prior to flash cooling in liquid nitrogen.
Diffraction data were collected at 100 K using Synchrotron beam line 31ID at the Advanced Photon Source (Argonne National Laboratory) and were integrated using MOSFLM v.6.2.6 [18]. […] Inhibitor binding to the MPO heme group was indicated by appropriately shaped peaks in the Fo–Fc electron density maps. The inhibitor was included in the model, and iterative cycles of manual model building with COOT [20] and restrained refinement with REFMAC v5.2.0019 [21] were used to complete the overall structure. Figures of the crystal structure were generated using PYMOL (www.pymol.org). […] The higher B-factors for the inhibitor molecules could be attributed to inhibitor occupancies of less than 1.0 or to higher degrees of thermal motion associated with the inhibitors. Lower than expected electron density peak heights were also observed for the Cl atom in the inhibitors, which could be due to the radiation damage to this X-Ray sensitive group.

[2] = ABTS radical cation decolorization assay to measure the antioxidant capacity; conditions: % inhibition at 20 uM single dose, read at 734 nm after 30 min
Method: The assay was modeled after the published procedure. Briefly, ABTS radical cation was prepared by adding 100 μl of 70 mM K2S2O8 to 10 ml ABTS, followed by vortexing and incubating at 37 °C water bath for 2 h. […] Trolox standards are dissolved in water. The reaction is started by adding the ABTS radical cation solution to the MPO inhibitors or Trolox (final concentration 20 μM). The plate is gently shaken for 1 min and then set on a bench top at room temperature for 30 min.

Compound	IC50 (hMPO) [µM]	ESR Rrelative [1]	ESR Binding [1]	X ray Cocrystal result (Human Myeloperoxidase)	Δg [1]	g X [1]	g Y [1]	% Anti oxidant potential [2] [%]
O=C(NO)c1ccccc1O [LSN13243]	5.9	14.7	Moderate (15 ≥ Rrelative ≥ 10 as moderate binding)	Yes				74.9
S=c1[nH]nc(-c2ccncc2)o1 [LSN19450]	3.99	0	No	No				85.8
O=C(O)c1n[nH]c2ccccc12 [LSN23500]	160	2.4	Weak (5 ≤ Rrelative ≥ 2 as weak binding)	No	1.875	6.789	4.914	0
O=[N+]([O-])c1c(O)ncnc1O [LSN106019]	538	29.2	Strong (25 ≥ Rrelative ≥ 15 as strong binding)	Yes	2.31	7.023	4.713	0
Cc1cc(C(F)(F)F)c(C#N)c(=O)[nH]1 [LSN131429]	138	-28.6	Strong (25 ≥ Rrelative ≥ 15 as strong binding)	Yes	1.344	6.559	5.215	9
Oc1nnc(-c2ccccc2)s1 [LSN227931]	333	0.2	No	No				0
Sc1nnc(-c2cccnc2)o1 [LSN811183]	73	16.5	Strong (25 ≥ Rrelative ≥ 15 as strong binding)	Yes	2.115	6.924	4.809	95.9
Fc1ccccc1-c1n[nH]c(=S)o1 [LSN2303506]	27.9	21.7	Strong (25 ≥ Rrelative ≥ 15 as strong binding)	Yes	2.1759	6.9749	4.799	97.7

Molecules with a lower IC50 (hMPO), results first:

IC50 (hMPO) [µM]	ESR Rrelative [1]	ESR Binding [1]	X ray Cocrystal result (Human Myeloperoxidase)	Δg [1]	g X [1]	g Y [1]	Compound	% Anti oxidant potential [2] [%]
0.698	3.3	Weak (5 ≤ Rrelative ≥ 2 as weak binding)	No				Cc1c(N)n[nH]c1-c1ccccc1 [LSN27223]	32.7
0.667	0	No	No				NC(=O)c1n[nH]cc1O [LSN104607]	1.56
0.406	0.2	No	No				Cc1cc(O)nc2[nH]nc(O)c12 [LSN66421]	10.4
0.396	0.2	No	No				Oc1n[nH]c2c1CCC2 [LSN386639]	38.2
0.219	0.2	No	No				O=C1CC(c2ccc(Cl)cc2)=NN1 [LSN34893]	53.4
0.168	0.3	No	No				Cc1cc(C)c2c(O)n[nH]c2n1 [LSN42503]	82.5
